{"source": "patent US9340559B2", "about": "“Proteasome inhibitor delanzomib for use in the treatment of lupus” (Cephalon, Inc., priority 2011, dated 2016)", "system": "NZM mice", "type": "in vivo, mouse", "note": "Where two headings read alike, the source gives them in different places.", "data": [{"smiles": "CC(C)C[C@H](NC(=O)[C@@H](NC(=O)c1cccc(-c2ccccc2)n1)[C@@H](C)O)B(O)O", "note": "[COMPOUND A, [(1R)-1-[[(2S,3R)-3-hydroxy-2-[6-phenyl-pyridine-2-carbonyl)amino]-1-oxobutyl]amino]-3-methylbutylboronic acid]", "values": [{"measurement": "Cytokine MIG AUC, percent change vs vehicle", "setting": "G1 3 mg/kg ip, 1× wk", "value": "−55", "unit": "%"}, {"measurement": "Cytokine TNFα AUC, percent change vs vehicle", "setting": "G1 3 mg/kg ip, 1× wk", "value": "−61", "unit": "%"}, {"measurement": "serum IL-12p40/p70 decrease vs vehicle", "setting": "G1: 3 mg/kg ip once per week", "value": 83, "unit": "%"}, {"measurement": "p, serum IL-12p40/p70 concentration vs G5 Bortezomib 0.3 mg/kg 1× wk ip", "setting": "G2 3 mg/kg 2× wk ip", "value": "NS (NS = not significant (p > 0.05))"}, {"measurement": "p, serum IL-12p40/p70 concentration vs G6 Bortezomib 0.3 mg/kg 2× wk ip", "setting": "G2 3 mg/kg 2× wk ip", "value": "NS (NS = not significant (p > 0.05))"}, {"measurement": "p, serum IL-12p40/p70 concentration vs G7 CTX 50 mg/kg 1× wk ip", "setting": "G2 3 mg/kg 2× wk ip", "value": "NS (NS = not significant (p > 0.05))"}, {"measurement": "p, serum IL-12p40/p70 concentration vs G8 Dex 1.5 mg/kg 3× wk ip", "setting": "G2 3 mg/kg 2× wk ip", "value": "NS (NS = not significant (p > 0.05))"}, {"measurement": "p, serum IL-12p40/p70 concentration vs G9 Vehicle 1× wk ip", "setting": "G2 3 mg/kg 2× wk ip", "value": "p < 0.01"}, {"measurement": "p, serum IL-13 concentration vs G5 Bortezomib 0.3 mg/kg 1× wk ip", "setting": "G2 3 mg/kg 2× wk ip", "value": "NS (NS = not significant (p > 0.05))"}, {"measurement": "p, serum IL-13 concentration vs G6 Bortezomib 0.3 mg/kg 2× wk ip", "setting": "G2 3 mg/kg 2× wk ip", "value": "NS (NS = not significant (p > 0.05))"}, {"measurement": "p, serum IL-13 concentration vs G7 CTX 50 mg/kg 1× wk ip", "setting": "G2 3 mg/kg 2× wk ip", "value": "P < 0.001"}, {"measurement": "p, serum IL-13 concentration vs G8 Dex 1.5 mg/kg 3× wk ip", "setting": "G2 3 mg/kg 2× wk ip", "value": "NS (NS = not significant (p > 0.05))"}, {"measurement": "p, serum IL-13 concentration vs G9 Vehicle 1× wk ip", "setting": "G2 3 mg/kg 2× wk ip", "value": "NS (NS = not significant (p > 0.05))"}, {"measurement": "p, serum IL-17A concentration vs G5 Bortezomib 0.3 mg/kg 1× wk ip", "setting": "G2 3 mg/kg 2× wk ip", "value": "NS (NS = not significant (p > 0.05))"}, {"measurement": "p, serum IL-17A concentration vs G6 Bortezomib 0.3 mg/kg 2× wk ip", "setting": "G2 3 mg/kg 2× wk ip", "value": "NS (NS = not significant (p > 0.05))"}, {"measurement": "p, serum IL-17A concentration vs G7 CTX 50 mg/kg 1× wk ip", "setting": "G2 3 mg/kg 2× wk ip", "value": "p < 0.001"}, {"measurement": "p, serum IL-17A concentration vs G8 Dex 1.5 mg/kg 3× wk ip", "setting": "G2 3 mg/kg 2× wk ip", "value": "NS (NS = not significant (p > 0.05))"}, {"measurement": "p, serum IL-17A concentration vs G9 Vehicle 1× wk ip", "setting": "G2 3 mg/kg 2× wk ip", "value": "NS (NS = not significant (p > 0.05))"}, {"measurement": "p, serum IP-10 concentration vs G5 Bortezomib 0.3 mg/kg 1× wk ip", "setting": "G2 3 mg/kg 2× wk ip", "value": "NS (NS = not significant (p > 0.05))"}, {"measurement": "p, serum IP-10 concentration vs G6 Bortezomib 0.3 mg/kg 2× wk ip", "setting": "G2 3 mg/kg 2× wk ip", "value": "NS (NS = not significant (p > 0.05))"}, {"measurement": "p, serum IP-10 concentration vs G7 CTX 50 mg/kg 1× wk ip", "setting": "G2 3 mg/kg 2× wk ip", "value": "p < 0.001"}, {"measurement": "p, serum IP-10 concentration vs G8 Dex 1.5 mg/kg 3× wk ip", "setting": "G2 3 mg/kg 2× wk ip", "value": "NS (NS = not significant (p > 0.05))"}, {"measurement": "p, serum IP-10 concentration vs G9 Vehicle 1× wk ip", "setting": "G2 3 mg/kg 2× wk ip", "value": "NS (NS = not significant (p > 0.05))"}, {"measurement": "p, serum MIG concentration vs G5 Bortezomib 0.3 mg/kg 1× wk ip", "setting": "G2 3 mg/kg 2× wk ip", "value": "NS (NS = not significant (p > 0.05))"}, {"measurement": "p, serum MIG concentration vs G6 Bortezomib 0.3 mg/kg 2× wk ip", "setting": "G2 3 mg/kg 2× wk ip", "value": "NS (NS = not significant (p > 0.05))"}, {"measurement": "p, serum MIG concentration vs G7 CTX 50 mg/kg 1× wk ip", "setting": "G2 3 mg/kg 2× wk ip", "value": "p < 0.001"}, {"measurement": "p, serum MIG concentration vs G8 Dex 1.5 mg/kg 3× wk ip", "setting": "G2 3 mg/kg 2× wk ip", "value": "NS (NS = not significant (p > 0.05))"}, {"measurement": "p, serum MIG concentration vs G9 Vehicle 1× wk ip", "setting": "G2 3 mg/kg 2× wk ip", "value": "NS (NS = not significant (p > 0.05))"}, {"measurement": "p, serum TNFα concentration vs G5 Bortezomib 0.3 mg/kg 1× wk ip", "setting": "G2 3 mg/kg 2× wk ip", "value": "NS (NS = not significant (p > 0.05))"}, {"measurement": "p, serum TNFα concentration vs G6 Bortezomib 0.3 mg/kg 2× wk ip", "setting": "G2 3 mg/kg 2× wk ip", "value": "NS (NS = not significant (p > 0.05))"}, {"measurement": "p, serum TNFα concentration vs G7 CTX 50 mg/kg 1× wk ip", "setting": "G2 3 mg/kg 2× wk ip", "value": "NS (NS = not significant (p > 0.05))"}, {"measurement": "p, serum TNFα concentration vs G8 Dex 1.5 mg/kg 3× wk ip", "setting": "G2 3 mg/kg 2× wk ip", "value": "p <0.001"}, {"measurement": "p, serum TNFα concentration vs G9 Vehicle 1× wk ip", "setting": "G2 3 mg/kg 2× wk ip", "value": "NS (NS = not significant (p > 0.05))"}, {"measurement": "Cytokine IL-12 AUC, percent change vs vehicle", "setting": "G2 3 mg/kg ip, 2× wk", "value": "−67", "unit": "%"}, {"measurement": "Cytokine IL-13 AUC, percent change vs vehicle", "setting": "G2 3 mg/kg ip, 2× wk", "value": "−33", "unit": "%"}, {"measurement": "Cytokine IL-17A AUC, percent change vs vehicle", "setting": "G2 3 mg/kg ip, 2× wk", "value": "−89", "unit": "%"}, {"measurement": "Cytokine IP-10 AUC, percent change vs vehicle", "setting": "G2 3 mg/kg ip, 2× wk", "value": "−30", "unit": "%"}, {"measurement": "Cytokine MIG AUC, percent change vs vehicle", "setting": "G2 3 mg/kg ip, 2× wk", "value": "−66", "unit": "%"}, {"measurement": "Cytokine TNFα AUC, percent change vs vehicle", "setting": "G2 3 mg/kg ip, 2× wk", "value": "−57", "unit": "%"}, {"measurement": "serum IL-12p40/p70 decrease vs vehicle", "setting": "G2: 3 mg/kg ip twice weekly", "value": 67, "unit": "%"}, {"measurement": "serum TNFα compared to Dex", "setting": "both once and twice weekly doses, p<0.001", "value": "decreased serum TNFα over that of Dex"}, {"measurement": "serum IL-12 decrease vs vehicle, range over the substance's groups", "setting": "once and twice weekly groups", "value": "67-83%"}, {"measurement": "serum CXCL9/MIG as compared to CTX", "setting": "p<0.001 vs CTX, but not to DEX", "value": "decreased"}, {"measurement": "IL-13 serum levels compared to vehicle", "setting": "treatment groups", "value": "No significant change"}, {"measurement": "IL-17A serum levels compared to vehicle", "setting": "treatment groups", "value": "No significant change"}, {"measurement": "serum CXCL10/IP-10 decrease vs vehicle", "setting": "twice weekly dose", "value": 30, "unit": "%"}]}]}
